Reference: ChEMBL document CHEMBL1909046, “DrugMatrix in vitro pharmacology data”

Legend:
[1] = molecular target: D(1A) dopamine receptor (Homo sapiens, UniProt P21728); assay: DRUGMATRIX: Dopamine D1 radioligand binding (ligand: [3H] SCH-23390); type: cell membranes, CHO, Membrane; conditions: cho; Not Active = under 50% inhibition at 10 µM
[2] = molecular target: D(3) dopamine receptor (Homo sapiens, UniProt P35462); assay: DRUGMATRIX: Dopamine D3 radioligand binding (ligand: [3H] Spiperone); type: cell membranes, CHO, Membrane
Chain of D(3) dopamine receptor (P35462 whole entry): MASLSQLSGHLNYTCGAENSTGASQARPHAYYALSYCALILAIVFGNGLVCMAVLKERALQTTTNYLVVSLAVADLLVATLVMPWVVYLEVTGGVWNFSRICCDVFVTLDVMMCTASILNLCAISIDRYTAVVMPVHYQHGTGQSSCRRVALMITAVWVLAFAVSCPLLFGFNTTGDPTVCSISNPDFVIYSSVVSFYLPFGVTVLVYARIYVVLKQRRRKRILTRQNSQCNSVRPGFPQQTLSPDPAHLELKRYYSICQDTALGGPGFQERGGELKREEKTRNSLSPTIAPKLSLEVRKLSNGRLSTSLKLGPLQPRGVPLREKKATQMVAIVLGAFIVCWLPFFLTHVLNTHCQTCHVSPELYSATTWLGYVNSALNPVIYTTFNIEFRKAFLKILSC

[3] = DRUGMATRIX: Glutamate, Kainate radioligand binding (ligand: [3H] Kainic acid); type: cell membranes, Rattus norvegicus, Wistar, Brain, Membrane; conditions: Not Active = under 50% inhibition at 10 µM
[4] = molecular target: Insulin receptor (Rattus norvegicus, UniProt P15127); type: cell membranes, Wistar, Liver, Membrane; further: in other assays of this panel Not Active means under 50% inhibition at 10 µM
Chain of Insulin receptor (P15127 27-759 limits assumed): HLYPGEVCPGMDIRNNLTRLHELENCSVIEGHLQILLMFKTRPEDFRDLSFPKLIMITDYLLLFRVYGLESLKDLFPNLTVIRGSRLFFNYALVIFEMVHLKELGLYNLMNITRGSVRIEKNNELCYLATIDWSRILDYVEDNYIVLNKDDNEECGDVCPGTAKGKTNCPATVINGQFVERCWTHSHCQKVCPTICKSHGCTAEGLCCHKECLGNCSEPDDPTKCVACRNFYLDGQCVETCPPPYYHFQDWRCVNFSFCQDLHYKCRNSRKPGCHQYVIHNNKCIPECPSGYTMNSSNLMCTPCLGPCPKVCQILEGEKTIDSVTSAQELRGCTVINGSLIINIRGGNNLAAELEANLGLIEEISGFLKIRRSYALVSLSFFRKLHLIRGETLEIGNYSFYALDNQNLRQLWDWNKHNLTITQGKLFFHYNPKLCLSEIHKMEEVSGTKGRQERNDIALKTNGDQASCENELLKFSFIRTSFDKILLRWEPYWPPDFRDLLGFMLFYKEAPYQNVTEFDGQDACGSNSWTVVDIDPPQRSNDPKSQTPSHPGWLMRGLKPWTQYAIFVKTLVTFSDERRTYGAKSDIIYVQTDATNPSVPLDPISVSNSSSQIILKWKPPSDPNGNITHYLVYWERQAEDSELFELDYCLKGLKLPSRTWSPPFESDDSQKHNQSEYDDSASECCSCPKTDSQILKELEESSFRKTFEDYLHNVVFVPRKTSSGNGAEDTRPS
Chain of Insulin receptor (P15127 764-1383 limits assumed): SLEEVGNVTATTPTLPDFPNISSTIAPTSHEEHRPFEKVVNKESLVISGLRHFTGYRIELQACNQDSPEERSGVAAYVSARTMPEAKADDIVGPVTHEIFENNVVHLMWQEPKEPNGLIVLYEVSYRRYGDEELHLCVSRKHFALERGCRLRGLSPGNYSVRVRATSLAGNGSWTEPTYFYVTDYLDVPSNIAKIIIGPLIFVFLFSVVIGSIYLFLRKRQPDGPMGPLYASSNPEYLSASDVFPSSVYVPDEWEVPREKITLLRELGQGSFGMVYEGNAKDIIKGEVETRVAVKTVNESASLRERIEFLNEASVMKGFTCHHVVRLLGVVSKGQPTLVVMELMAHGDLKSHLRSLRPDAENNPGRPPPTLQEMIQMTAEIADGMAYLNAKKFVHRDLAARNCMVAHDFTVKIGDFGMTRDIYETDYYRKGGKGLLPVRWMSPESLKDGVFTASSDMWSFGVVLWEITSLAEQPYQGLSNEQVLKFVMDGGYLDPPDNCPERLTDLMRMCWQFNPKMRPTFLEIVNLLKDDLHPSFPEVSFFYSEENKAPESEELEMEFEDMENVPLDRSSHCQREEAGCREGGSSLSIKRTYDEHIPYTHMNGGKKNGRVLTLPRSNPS

[5] = molecular target: T1, Adenosine receptor A3 (Homo sapiens, UniProt P0DMS8); type: cell membranes, CHO-K1, Membrane; conditions: cho-k1;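 further: radioligand binding assay with AB-MECA serving as the labeled ligand; in other assays of this panel Not Active means under 50% inhibition at 10 µM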
T1 sequence (P0DMS8 whole entry): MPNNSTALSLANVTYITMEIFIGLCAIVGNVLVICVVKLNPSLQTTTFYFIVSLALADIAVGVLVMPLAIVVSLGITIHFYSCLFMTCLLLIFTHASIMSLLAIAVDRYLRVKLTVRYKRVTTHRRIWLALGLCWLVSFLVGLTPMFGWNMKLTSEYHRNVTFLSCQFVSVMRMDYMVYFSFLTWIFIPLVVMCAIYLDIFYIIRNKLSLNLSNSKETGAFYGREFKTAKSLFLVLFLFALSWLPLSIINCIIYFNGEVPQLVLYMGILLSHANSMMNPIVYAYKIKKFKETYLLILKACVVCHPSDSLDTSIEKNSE

[6] = molecular target: Cytochrome P450 2D6 (Homo sapiens, UniProt P10635); conditions: bti-tn-5b1-4; further: in other assays of this panel Not Active means under 50% inhibition at 10 µM
Chain of Cytochrome P450 2D6 (P10635 whole entry): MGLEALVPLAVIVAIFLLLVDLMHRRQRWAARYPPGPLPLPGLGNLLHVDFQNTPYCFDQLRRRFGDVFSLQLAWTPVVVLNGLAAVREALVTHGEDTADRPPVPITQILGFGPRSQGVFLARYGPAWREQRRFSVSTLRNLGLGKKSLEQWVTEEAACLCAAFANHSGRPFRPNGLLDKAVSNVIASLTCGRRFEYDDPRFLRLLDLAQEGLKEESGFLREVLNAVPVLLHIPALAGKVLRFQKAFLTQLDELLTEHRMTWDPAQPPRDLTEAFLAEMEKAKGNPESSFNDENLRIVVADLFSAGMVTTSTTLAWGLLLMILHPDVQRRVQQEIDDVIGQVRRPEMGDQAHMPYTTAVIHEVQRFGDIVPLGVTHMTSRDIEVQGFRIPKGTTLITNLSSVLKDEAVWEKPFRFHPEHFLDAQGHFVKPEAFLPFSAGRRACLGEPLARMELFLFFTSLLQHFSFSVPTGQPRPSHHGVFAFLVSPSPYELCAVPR

Chain of D(1A) dopamine receptor (P21728 whole entry): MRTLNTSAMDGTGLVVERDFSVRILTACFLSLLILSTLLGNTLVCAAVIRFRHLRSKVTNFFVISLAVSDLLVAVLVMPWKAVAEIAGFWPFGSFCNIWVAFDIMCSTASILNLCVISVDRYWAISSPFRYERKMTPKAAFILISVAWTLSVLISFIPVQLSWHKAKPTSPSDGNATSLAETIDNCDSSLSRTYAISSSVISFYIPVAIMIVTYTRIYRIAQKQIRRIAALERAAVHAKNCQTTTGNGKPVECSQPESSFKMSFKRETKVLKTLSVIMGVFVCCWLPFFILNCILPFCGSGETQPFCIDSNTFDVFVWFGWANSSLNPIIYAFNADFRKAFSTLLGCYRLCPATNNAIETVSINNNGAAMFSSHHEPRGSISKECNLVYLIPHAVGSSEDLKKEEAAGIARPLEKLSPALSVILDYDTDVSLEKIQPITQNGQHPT

Row | Molecule | IC50 [1] | IC50 ([2]; read-out: IC50) | Ki ([2]; read-out: Ki) | IC50 [3] | Ki [3] | IC50 [4] | IC50 [5] | IC50 [6] | Ki [6] | IC50 ([2]; cho) | Ki [1] | Ki ([2]; cho) | Ki [4] | Ki [5]
1 | CCN(CC)CCCC(C)Nc1c2ccc(Cl)cc2nc2ccc(OC)cc12 (centres undefined) [QUINACRINE] | Not Active | 1.32 µM | 0.448 µM | Not Active | Not Active | Not Active | Not Active | Not Active | Not Active | – | – | – | – | –
2 | C[C@]12C=CC(=O)C=C1CC[C@H]1[C@@H]3C[C@@H](O)[C@](O)(C(=O)CO)[C@@]3(C)C[C@H](O)[C@@]12F [TRIAMCINOLONE] | Not Active | – | – | Not Active | Not Active | Not Active | Not Active | Not Active | Not Active | Not Active | – | – | – | –
3 | CCN(C(C)=O)c1cccc(-c2ccnc3c(C#N)cnn23)c1 [ZALEPLON] | Not Active | – | – | Not Active | Not Active | Not Active | Not Active | Not Active | Not Active | Not Active | – | – | – | –
4 | COBALTOUS CHLORIDE | Not Active | – | – | Not Active | Not Active | Not Active | Not Active | Not Active | Not Active | Not Active | Not Active | Not Active | Not Active | Not Active
5 | COLISTIN | Not Active | – | – | Not Active | Not Active | Not Active | Not Active | Not Active | Not Active | Not Active | Not Active | Not Active | Not Active | Not Active
